Laboratory results: patent US11708335B2, “Pyrimidine compounds useful as tyrosine kinase inhibitors” (STERNGREENE, INC., priority 2017, dated 2023)

Tests used:
[1] = target: EGFR(C797S) (Homo sapiens, UniProt P00533, C797S); assay: RBC HotSpot kinase assay, EGFR mutants, 10 μM ATP; assay type: biochemical; conditions: FIG. 3
Description: (§1) Example 2: RBC HotSpot Kinase Assay Protocol
(§2) An RBC HotSpot Kinase Assay can be performed to determine kinase activity data. A sample RBC HotSpot KinaseAssay protocol is as follows:
(§3) Reagent: Base Reaction buffer; 20 mM Hepes (pH 7.5), 10 mM MgCl2, 1 mM EGTA, 0.02% Brij35, 0.02 mg/ml BSA, 0.1 mM Na3VO4, 2 mM DTT, 1% DMSO
(§4) Add required cofactors individually to each kinase reaction.
(§5) Compound handling: Dissolve testing compounds in 100% DMSO to specific concentration. Serial dilution can be conducted using Integra Viaflo Assist in DMSO.
(§6) Prepare substrate in freshly prepared Reaction Buffer.
(§7) Deliver any required cofactors to the substrate solution above.
(§8) Deliver kinase into the substrate solution and gently mix.
(§9) Deliver compounds in 100% DMSO into the kinase reaction mixture by Acoustic technology (Echo550; nanoliter range) and incubate for 20 min at room temp.
(§10) Deliver ^33P-ATP (Specific activity 10 μCi/μl) into the reaction mixture to initiate the reaction.
(§11) Incubate for 2 hours at room temperature.
(§12) Detect radioactivity by filter-binding method.
(§13) Kinase activity data can be expressed as the percent remaining kinase activity in test samples compared to vehicle (dimethyl sulfoxide) reactions. IC50 values and curve fits can be obtained using Prism (GraphPad Software).
(§14) Essays conducted as outlined in Examples 1 and 2.

[2] = target: EGFR(L858R/T790M/C797S) (Homo sapiens, UniProt P00533, C797S/L858R/T790M); assay: RBC HotSpot kinase assay, EGFR mutants, 10 μM ATP; assay type: biochemical; conditions: FIG. 3
Description: as §1, §2, §3, §4, §5, §6, §7, §8, §9, §10, §11, §12, §13, §14

[3] = target: EGFR(d746-750/T790M/C797 S) (Homo sapiens, UniProt P00533, C797S/DEL746-750/T790M); assay: RBC HotSpot kinase assay, EGFR mutants, 10 μM ATP; assay type: biochemical; conditions: FIG. 3
Description: as §1, §2, §3, §4, §5, §6, §7, §8, §9, §10, §11, §12, §13, §14

[4] = test system: A431 cells; assay: In vitro proliferation (MTT) of A431 cells; assay type: cell-based; conditions: A431 cells express the wild type EGFR; FIG. 4
Description: (§15) Example 1: MTT Assay Protocol
(§16) An MTT assay can be performed to screen compounds for suitability as an EGFR inhibitor. A sample MTT assay protocol is as follows:
(§17) SKBR3, BT474, MDA-MB-231, MDA-MB-453, MDA-MB-468, Ml: 5000 cells/well, 5% FBS; NE91, NR6 and NR6 derived cell lines: 2500 cells/well, 5% FBS; H1975: 5000 cells/well, 1% FBS).
(§18) Add 50 μl medium with different concentrations of inhibitors. Incubate at 37° C., 5% CO2 for 72 hrs.
(§19) Replace the medium with 100 μl of fresh medium. Leave at 37° C., 5% CO2 for 4 hrs.
(§20) Add 25 μl of MIT (5 mg/ml stock solution, final concentration 1 mg/ml) to each well. Incubate the microtrays for 2 hours at 37° C.
(§21) Add 100 μl extraction buffer (50% DMF/20% SDS at pH 4.7) to each well.
(§22) Incubate overnight at 37° C. and OD measurements at 570 nm.
(§23) A MTT assay protocol is also described in Hansen et al., “Re-examination and further development of a precise and rapid dye method for measuring cell growth/cell kill,” J. Immunol. Methods 119:203-210 (1989).
as §14

[5] = test system: NCI-H1975 cells; assay: In vitro proliferation (MTT) of NCI-H1975 cells; assay type: cell-based; conditions: FIG. 4; for IC50: Homo sapiens, NCI-H1975 cells, EGFR(T790M) mutant, read-out: IC50, inhibition of NCI-H1975 cell proliferation; for activity against NCI-H1975 cells (proliferation): NCI-H1975 cells express the EGFR(T790M) mutant
Description: as §15, §16, §17, §18, §19, §20, §21, §22, §23, §14

| SMILES | activity against EGFR(C797S) [1] | activity on EGFR(L858R/T790M/C797S) [2] | activity on EGFR(d746-750/T790M/C797 S) [3] | activity against A431 cells (proliferation) [4] | IC50 [5] | activity against NCI-H1975 cells (proliferation) [5] | activity against NCI-H1975 cells (proliferation) ([5]; listed as SG1-105) |
| --- | --- | --- | --- | --- | --- | --- | --- |
| CCOc1cc2ncnc(Nc3ccc(F)c(Cl)c3)c2cc1NC(=O)/C=C/CN(C)CCCOC [SGI-105] | very strong activity | good activity | good activity | weak activity | 181 nM | better activity | more active than SGI-078 |
| CCOc1cc2ncnc(Nc3ccc(F)c(Cl)c3)c2cc1NC(=O)/C=C/CN(C)CCCO [SGI-078] | very strong activity | good activity | good activity | weak activity |  | better activity |  |
